Values of other authors as cited in article PMC10425210 (The Journal of Clinical Investigation, 2023).

Legend:
[1] = parameters: method as in PMID 29008798; settings: cited from earlier work
SHIV109CP3 = tested on: SHIV109CP3; parameters: method as in PMID 31175822; settings: cited from earlier work

C#C[C@]1(CO)O[C@@H](n2cnc3c(N)nc(F)nc32)C[C@@H]1O [islatravir]
adverse finding during clinical development [1]: unanticipated lymphopenia
prevention of infection (SHIV109CP3): proven efficacy at preventing infection
